Source: US20150374676A1, “HELICASE-PRIMASE INHIBITORS FOR USE IN A METHOD OF TREATING ALZHEIMER'S DISEASE” (AICURIS GMBH & CO. KG, priority 2013, published 2015)
Like-named read-outs stand apart in the source and are kept apart here.

Legend:
[1] = fraction unbound in cell culture medium; type: in vitro ADME
[2] = fraction unbound in murine plasma; type: in vitro ADME; conditions: mouse
[3] = Multiple-dose escalation, steady state pharmacokinetics in healthy volunteers; type: in vivo, human; conditions: for Ctrough: free base in plasma; for AUC / Cmax: human, plasma, oral
Description: For three doses of the mono mesylate monohydrate salt of N-[5-(aminosulfonyl)-4-methyl-1,3-thiazol-2-yl]-N-methyl-2-[4-(2-pyridinyl)phenyl]acetamide in formulations in accordance with table a, wherein the particle size distribution is preferably defined by d(0.1) from 2 to 100 μm, d(0.5) from 30 to 210 μm and d(0.9) from 70 to 400 μm with a specific surface area of the particles less than 1.0 m^2/g, and more preferably defined by d(0.1) from 10 to 75 μm, d(0.5) from 100 to 175 μm, d(0.9) from 200 to 350 μm with a specific surface area of the particles less than 0.3 m^2/g, investigated (5, 25, and 100 mg as free base equivalent; once per day oral administration, […]), the individual concentration-time curves of the free base N-[5-(aminosulfonyl)-4-methyl-1,3-thiazol-2-yl]Nmethyl-2-[4-(2-pyridinyl)phenyl]acetamide at day 1 (after the first administration) were very similar in their general shape and slope to those profiles obtained in the single dose escalation trial (see Example a).
At steady state, there was a low inter-individual variability of minimal or “trough” concentrations with CVs (coefficient of variations) between 16.7 and 21.7% (day 21). For all doses, the individual and mean concentration-time curves of the free base of N-[5-(aminosulfonyl)-4-methyl-1,3-thiazol-2-yl]-N-methyl-2-[4-(2-pyridinyl)phenyl]acet-amide at day 21 were very similar in their shape and slope to those profiles obtained at day 1.
Table c: Steady state pharmacokinetic parameters of the free base N-[5-(aminosulfonyl)-4-methyl-1,3-thiazol-2-yl]-N-methyl-2-[4-(2-pyridinyl)phenyl]acetamide at day 21 after daily administrations of 5, 25, or 100 mg as free base equivalent of the mono mesylate monohydrate salt of N-[5-(aminosulfonyl)-4-methyl-1,3-thiazol-2-yl]-N-methyl-2-[4-(2-pyridinyl)phenyl]acetamide in formulations in accordance with table a, wherein the particle size distribution is preferably defined by d(0.1) from 2 to 100 μm, d(0.5) from 30 to 210 μm and d(0.9) from 70 to 400 μm with a specific surface area of the particles less than 1.0 m^2/g, and more preferably defined by d(0.1) from 10 to 75 μm, d(0.5) from 100 to 175 μm, d(0.9) from 200 to 350 μm with a specific surface area of the particles less than 0.3 m^2/g, to healthy volunteers (n=12 per dose).

[4] = 5 mg free base equivalent once daily, day 21 steady state, healthy volunteers n=12
[5] = 25 mg free base equivalent once daily, day 21 steady state, healthy volunteers n=12
[6] = 100 mg free base equivalent once daily, day 21 steady state, healthy volunteers n=12

Structure (SMILES): CS(=O)(=O)O.Cc1nc(N(C)C(=O)Cc2ccc(-c3ccccn3)cc2)sc1S(N)(=O)=O [mono mesylate monohydrate salt, N-[5-(aminosulfonyl)-4-methyl-1,3-thiazol-2-yl]-N-methyl-2-[4-(2-pyridinyl)-phenyl]acetamide mono methanesulfonic acid monohydrate]
- fraction unbound [1]: 0.71
- fraction unbound [2]: 0.028
- Cav [3, 4]: 213 ng/mL
- t1/2z [3, 4]: 82.6 h
- Ctrough [3, 4]: 187 ng/mL
- t1/2z on average ([3]; 25 mg dosage as free base equivalent, steady state after once daily single doses for 21 days): 69 ± 6 h
- Cav [3, 5]: 977 ng/mL
- Cmax,ss [3, 5]: 1358 ng/mL
- t1/2z [3, 5]: 68.6 h
- AUCτ ([3]; 25 mg free base equivalent once daily, day 21 steady state, healthy volunteers n=12, dosing interval 24 hours): 23430 ng·h/mL
- Ctrough [3, 5]: 832 ng/mL
- Cav [3, 6]: 4540 ng/mL
- Cmax,ss [3, 6]: 6358 ng/mL
- t1/2z [3, 6]: 59.8 h
- AUCτ ([3]; 100 mg free base equivalent once daily, day 21 steady state, healthy volunteers n=12, dosing interval 24 hours): 108800 ng·h/mL
- Ctrough [3, 6]: 3743 ng/mL
- t1/2z on average ([3]; 200 mg dosage as free base equivalent, steady state after once daily single doses for 21 days): 57.19 ± 5.451 h
- dose dependence of AUC0-24h and Cmax at day 1 ([3]; 5, 25, 100 mg free base equivalent, after the first administration): dose-proportional increases
- dose dependence of exposure at steady state (Ctrough, AUCτ, Cmax,ss, Cav) ([3]; 5, 25, 100 mg once daily): dose-proportional increase
- accumulation ratio R for AUC and Cmax ([3]; all doses applied (5, 25, 100 mg once daily)): ~5
- apparent total clearance (CL/F) ([3]; all doses investigated (5, 25, 100 mg once daily), steady state): 0.99 to 1.08 L/h
- AUC ([3]; 200 mg, 100 mg dosage as free base equivalent, steady state after once daily single doses for 21 days, read-out: AUCτ,ss): 168000 ± 38000 ng·h/mL
- AUC ([3]; 5 mg free base equivalent once daily, day 21 steady state, healthy volunteers n=12, dosing interval 24 hours, read-out: AUCτ): 5090 ng·h/mL
- Cmax ([3]; 5 mg free base equivalent once daily, day 21 steady state, healthy volunteers n=12, read-out: Cmax,ss): 301 ng/mL
- Cmax ([3]; 100 mg dosage as free base equivalent, steady state after once daily single doses for 21 days, read-out: mean maximum blood plasma concentration at steady state (mean Cmax,ss) of the free base): 6360 ± 1700 ng/mL
- Cmax ([3]; 200 mg dosage as free base equivalent, steady state after once daily single doses for 21 days, read-out: mean maximum blood plasma concentration at steady state (mean Cmax,ss) of the free base): 9990 ± 2610 ng/mL
